This passage reports GI50 and melting point results from patent US9006451B1, “2-anilinonicotinyl based chalcones useful as potential anticancer agents and process for preparation thereof” (Council of Scientific and Industrial Research, priority 2013, dated 2015).

One series deals with TK-10. Briefly: NCI 60 human tumor cell line screen (SRB): TK-10. The series is classed as cell-based. To be noted: TK-10, Renal, 48 hours, read-out: GI50 values (μM conc.). The protocol:
(§1) The in vitro anticancer activity studies for these chalcone analogues were carried out at the National Cancer Institute, USA.
(§2) The chalcone compounds have been tested at NCI, USA, against sixty human tumor cell lines derived from nine cancer types (leukemia, non-small cell lung cancer, colon cancer, CNS cancer, melanoma cancer, ovarian cancer, renal cancer, prostate cancer and breast cancer). For these compounds results are expressed as growth inhibition (GI50) values as per NCI protocol.
(§3) We describe here the development and implementation of a pilot-scale, in vitro, anticancer drug screen utilizing a panel of 60 human tumor cell lines organized into subpanels representing leukemia, melanoma, and cancers of the lung, colon, kidney, ovary, and central nervous system. The ultimate goal of this disease-oriented screen is to facilitate the discovery of new compounds with potential cell line-specific and/or subpanel-specific antitumor activity. In the current screening protocol, each cell line is inoculated onto microtiter plates, then preincubated for 28 hours. Subsequently, test agents are added in five 10-fold dilutions and the culture is incubated for an additional 48 hours. For each test agent, a dose-response profile is generated. End-point determinations of the cell viability or cell growth are performed by in situ fixation of cells, followed by staining with a protein-binding dye, sulforhodamine B (SRB). The SRB binds to the basic amino acids of cellular macromolecules; the solubilized stain is measured spectrophotometrically to determine relative cell growth or viability in treated and untreated cells.

The next series deals with K-562. Briefly: NCI 60 human tumor cell line screen (SRB): K-562. The series is classed as cell-based. The note with it: K562, K-562, Leukemia, 48 hours, read-out: GI50 values (μM conc.). The procedure:
as §1, §2
as §3, with “For each test agent, a dose-response profile is generated. End-point determinations of the cell viability or cell growth are performed by in situ fixation of cells, followed by staining with a protein-binding dye, sulforhodamine B (SRB).” left out

Take `COc1cc(C(=O)/C=C/c2cccnc2Nc2ccc(Cl)cc2)cc(OC)c1OC` [6ax, (E)-3-(2-(4-Chlorophenylamino)pyridin-3-yl)-1-(3,4,5-trimethoxyphenyl)prop-2-en-1-one]: in the series on TK-10, the GI50 amounted to 1.87 µM.
With `COc1ccc(Nc2ncccc2/C=C/C(=O)c2cc(OC)c(OC)c(OC)c2)cc1` [6h, (E)-3-(2-(4-Methoxyphenylamino)pyridin-3-yl)-1-(3,4,5-trimethoxyphenyl)prop-2-en-1-one], the GI50 with K-562 stood at 0.78 µM.
`COc1cc(/C=C/C(=O)c2cccnc2Nc2ccc(F)cc2)cc(OC)c1OC` [7f, (E)-1-(2-(4-Fluorophenylamino)pyridin-3-yl)-3-(3,4,5-trimethoxyphenyl)prop-2-en-1-one]: in the series with TK-10, the GI50 stood at 3.52 µM.
On the same count and under the same terms, the same measure for `COc1ccc(C(=O)/C=C/c2cccnc2Nc2cc(OC)c(OC)c(OC)c2)cc1` [6z, (E)-1-(4-Methoxyphenyl)-3-(2-(3,4,5-trimethoxyphenylamino)pyridin-3-yl)prop-2-en-1-one]: 2.06 µM.
For `COc1cc(C(=O)/C=C/c2cccnc2Nc2ccccc2)cc(OC)c1OC` [6a, (E)-3-(2-(Phenylamino)pyridin-3-yl)-1-(3,4,5-trimethoxyphenyl)prop-2-en-1-one], the melting point lay within 125 to 128 °C. Moreover, in the series on TK-10, the GI50 is 1.82 µM.
Take `COc1cc(Nc2ncccc2/C=C/C(=O)c2cc(OC)c(OC)c(OC)c2)cc(OC)c1OC` [6v, (E)-1-(3,4,5-Trimethoxyphenyl)-3-(2-(3,4,5-trimethoxyphenylamino)pyridin-3-yl)prop-2-en-1-one]: the GI50 in the series on TK-10 amounted to 1.55 µM.
